Results: patent US10059722B2, “Cephalosporin derivatives and methods of use” (priority 2012, dated 2018)
≈ marks a conversion by molar mass, not a printed value.

test system: non-replicating M. tuberculosis; experiment: microbe, parasite or virus in culture; format: cell-based, Mycobacterium tuberculosis; conditions: Mycobacterium tuberculosis; 3,4-olefinic isomers; read-out: minimum inhibitory concentration against non-replicating M. tuberculosis

SMILES	MIC
CCCCOC(=O)C1=C(C)CS[C@@H]2[C@H](NC(=O)COc3ccccc3)C(=O)N12 [Compound 118]	3.1 µg/mL (≈ 7.66 µM)
CCCCOC(=O)C1C(C)=CS[C@@H]2[C@H](NC(=O)COc3ccccc3)C(=O)N12 (stereo partly drawn) [Compound 119]	3.1 µg/mL (≈ 7.66 µM)

same assay, conditions: Table 8; ranges from multiple assays

SMILES	MIC NR at 0.01 Inoc. and 3 Day Exposure to Drug, 7 Day Outgrowth	MIC NR at 0.01 Inoc. and 3 Day Exposure to Drug, 11 Day Outgrowth
C#CCCC(=O)N[C@@H]1C(=O)N2C(C(=O)OCCC)=C(C)CS[C@H]12 [Compound 34]	1.56 µg/mL (≈ 4.64 µM)	3.13 µg/mL (≈ 9.3 µM)
CCOC(=O)C1=C(C)CS[C@@H]2[C@H](NC(=O)COc3ccccc3)C(=O)N12 [Compound 40]	0.39 µg/mL (≈ 1.04 µM)	0.78 µg/mL (≈ 2.07 µM)
CCCOC(=O)C1=C(C)CS[C@@H]2[C@H](NC(=O)COc3ccc(OC)cc3)C(=O)N12 [Compound 42]	0.20 µg/mL (≈ 0.476 µM)	0.39 µg/mL (≈ 0.927 µM)
CCOC(=O)C1=C(C)CS[C@@H]2[C@H](NC(=O)COc3ccc(OC)cc3)C(=O)N12 [Compound 43]	0.39 µg/mL (≈ 0.96 µM)	1.56 µg/mL (≈ 3.84 µM)
CCCOC(=O)C1=C(C)CS[C@@H]2[C@H](NC(=O)COc3ccc(Cl)cc3)C(=O)N12 [Compound 45]	0.39 µg/mL (≈ 0.918 µM)	0.39 µg/mL (≈ 0.918 µM)
CCOC(=O)C1=C(C)CS[C@@H]2[C@H](NC(=O)COc3ccc(Cl)cc3)C(=O)N12 [Compound 46]	0.39 µg/mL (≈ 0.949 µM)	078 µg/mL (≈ 190 µM)
CCCOC(=O)C1=C(C)CS[C@@H]2[C@H](NC(=O)CCc3ccccc3)C(=O)N12 [Compound 48]	0.10 µg/mL (≈ 0.257 µM)	0.20 µg/mL (≈ 0.515 µM)
CCOC(=O)C1=C(C)CS[C@@H]2[C@H](NC(=O)CCc3ccccc3)C(=O)N12 [Compound 49]	0.20 µg/mL (≈ 0.534 µM)	0.39 µg/mL (≈ 1.04 µM)
CCCOC(=O)C1=C(C)CS[C@@H]2[C@H](NC(=O)CCc3ccc(OC)cc3)C(=O)N12 [Compound 51]	0.10 µg/mL (≈ 0.239 µM)	0.10 µg/mL (≈ 0.239 µM)
CCOC(=O)C1=C(C)CS[C@@H]2[C@H](NC(=O)CCc3ccc(OC)cc3)C(=O)N12 [Compound 52]	0.20 µg/mL (≈ 0.494 µM)	0.39 µg/mL (≈ 0.964 µM)
CCCOC(=O)C1=C(C)CS[C@@H]2[C@H](NC(=O)CCc3ccc(Cl)cc3)C(=O)N12 [Compound 54]	0.20 µg/mL (≈ 0.473 µM)	0.39 µg/mL (≈ 0.922 µM)
CCOC(=O)C1=C(C)CS[C@@H]2[C@H](NC(=O)CCc3ccc(Cl)cc3)C(=O)N12 [Compound 55]	0.20 µg/mL (≈ 0.489 µM)	0.39 µg/mL (≈ 0.954 µM)
C#CCOC(=O)C1=C(C)CS[C@@H]2[C@H](NC(=O)COc3ccccc3)C(=O)N12 [Compound 82]	1.56 µg/mL (≈ 4.04 µM)	3.13 µg/mL (≈ 8.1 µM)
C#CCOC(=O)C1=C(C)CS[C@@H]2[C@H](NC(=O)COc3ccc(OC)cc3)C(=O)N12 [Compound 85]	0.78 µg/mL (≈ 1.87 µM)	1.56 µg/mL (≈ 3.75 µM)
C#CCOC(=O)C1=C(C)CS[C@@H]2[C@H](NC(=O)COc3ccc(Cl)cc3)C(=O)N12 [Compound 88]	0.78 µg/mL (≈ 1.85 µM)	1.56 µg/mL (≈ 3.71 µM)
C#CCOC(=O)C1=C(C)CS[C@@H]2[C@H](NC(=O)CCc3ccccc3)C(=O)N12 [Compound 91]	0.78 µg/mL (≈ 2.03 µM)	1.56 µg/mL (≈ 4.06 µM)
C#CCOC(=O)C1=C(C)CS[C@@H]2[C@H](NC(=O)CCc3ccc(OC)cc3)C(=O)N12 [Compound 94]	0.78 µg/mL (≈ 1.88 µM)	1.56 µg/mL (≈ 3.76 µM)
C#CCOC(=O)C1=C(C)CS[C@@H]2[C@H](NC(=O)CCc3ccc(Cl)cc3)C(=O)N12 [Compound 97]	0.39 µg/mL (≈ 0.931 µM)	0.78 µg/mL (≈ 1.86 µM)

test system: replicating M. tuberculosis; experiment: MIC under replication (R) conditions; format: cell-based, Mycobacterium tuberculosis; conditions: Mycobacterium tuberculosis, read-out: minimum inhibitory concentration against replicating M. tuberculosis

SMILES	MIC
CCCCOC(=O)C1=C(C)CS[C@@H]2[C@H](NC(=O)COc3ccccc3)C(=O)N12 [Compound 118]	100 µg/mL (≈ 247 µM)
CCCCOC(=O)C1C(C)=CS[C@@H]2[C@H](NC(=O)COc3ccccc3)C(=O)N12 (stereo partly drawn) [Compound 119]	100 µg/mL (≈ 247 µM)

test system: HepG2 cells; experiment: not given; format: cell-based; conditions: Table 8
Method: Three lead compounds were identified in the first round of high throughput screening (700 compounds), which had minimal inhibitory concentrations (MIC) of 0.4-0.8 μg/mL after a six day exposure to drug (NRd6) in the model of non-replication at pH 5.0, and LD50's of 100 to >100 μg/mL against HepG2 cells (a 2 day exposure).
Furthermore, LD50 values were determined using a human hepatoma cell line (HepG2) using intracellular ATP levels as a measurement that correlated with cellular viability.

SMILES	HepG2 Toxicity LD50
C#CCCC(=O)N[C@@H]1C(=O)N2C(C(=O)OCCC)=C(C)CS[C@H]12 [Compound 34]	>100 µg/mL
CCOC(=O)C1=C(C)CS[C@@H]2[C@H](NC(=O)COc3ccccc3)C(=O)N12 [Compound 40]	>100 µg/mL
CCCOC(=O)C1=C(C)CS[C@@H]2[C@H](NC(=O)COc3ccc(OC)cc3)C(=O)N12 [Compound 42]	>100 µg/mL
CCOC(=O)C1=C(C)CS[C@@H]2[C@H](NC(=O)COc3ccc(OC)cc3)C(=O)N12 [Compound 43]	>100 µg/mL
CCCOC(=O)C1=C(C)CS[C@@H]2[C@H](NC(=O)COc3ccc(Cl)cc3)C(=O)N12 [Compound 45]	100 µg/mL
CCOC(=O)C1=C(C)CS[C@@H]2[C@H](NC(=O)COc3ccc(Cl)cc3)C(=O)N12 [Compound 46]	50 µg/mL
CCCOC(=O)C1=C(C)CS[C@@H]2[C@H](NC(=O)CCc3ccccc3)C(=O)N12 [Compound 48]	>100 µg/mL
CCOC(=O)C1=C(C)CS[C@@H]2[C@H](NC(=O)CCc3ccccc3)C(=O)N12 [Compound 49]	>100 µg/mL
CCOC(=O)C1=C(C)CS[C@@H]2[C@H](NC(=O)CCc3ccc(OC)cc3)C(=O)N12 [Compound 52]	>100 µg/mL
CCCOC(=O)C1=C(C)CS[C@@H]2[C@H](NC(=O)CCc3ccc(Cl)cc3)C(=O)N12 [Compound 54]	>100 µg/mL
CCOC(=O)C1=C(C)CS[C@@H]2[C@H](NC(=O)CCc3ccc(Cl)cc3)C(=O)N12 [Compound 55]	>100 µg/mL
C#CCOC(=O)C1=C(C)CS[C@@H]2[C@H](NC(=O)COc3ccccc3)C(=O)N12 [Compound 82]	>100 µg/mL
C#CCOC(=O)C1=C(C)CS[C@@H]2[C@H](NC(=O)COc3ccc(OC)cc3)C(=O)N12 [Compound 85]	>100 µg/mL
C#CCOC(=O)C1=C(C)CS[C@@H]2[C@H](NC(=O)COc3ccc(Cl)cc3)C(=O)N12 [Compound 88]	100 µg/mL
C#CCOC(=O)C1=C(C)CS[C@@H]2[C@H](NC(=O)CCc3ccccc3)C(=O)N12 [Compound 91]	>100 µg/mL
C#CCOC(=O)C1=C(C)CS[C@@H]2[C@H](NC(=O)CCc3ccc(OC)cc3)C(=O)N12 [Compound 94]	>100 µg/mL
C#CCOC(=O)C1=C(C)CS[C@@H]2[C@H](NC(=O)CCc3ccc(Cl)cc3)C(=O)N12 [Compound 97]	100 µg/mL
